Patent US12404262B2 (priority 2021, dated 2025)
Values after ≈ are worked out from the molar mass of the structure shown.

Tests used:
[1] = 1.0% DMSO, 24-hour incubation at ambient temperature, maximum theoretical 100 μM; for pH 2 solubility: 0.1N HCl, first value of the cell; for pH 7 solubility: 1×PBS buffer (pH 7.4), second value of the cell
[2] = Solubility in simulated intestinal fluids (FaSSIF/FeSSIF); conditions: 25 °C, thermodynamic from solid
[3] = fasted state simulated intestinal fluid (FaSSIF), fassif
[4] = fed state simulated intestinal fluid (FeSSIF), fessif

Row | SMILES | pH 2 solubility [1] [μM] | pH 7 solubility [1] [μM] | solubility [2, 3] [µg/mL] | solubility [2, 4] [µg/mL]
1 | CC(C)(C#Cc1ccc(-c2ccc(Cl)c3c(N(C(=O)C(=O)O)S(C)(=O)=O)nn(CC(F)(F)F)c23)c([C@H](Cc2cc(F)cc(F)c2)NC(=O)Cn2nc(C(F)(F)F)c3c2C(F)(F)[C@@H]2C[C@H]32)n1)S(C)(=O)=O [Compound 16] | 1 | 92 | 710 (≈ 682 µM) | 497 (≈ 478 µM)
2 | CC(C)(C#Cc1ccc(-c2ccc(Cl)c3c(N(COC(=O)C(=O)O)S(C)(=O)=O)nn(CC(F)(F)F)c23)c([C@H](Cc2cc(F)cc(F)c2)NC(=O)Cn2nc(C(F)(F)F)c3c2C(F)(F)[C@@H]2C[C@H]32)n1)S(C)(=O)=O [Compound 20, 2-((N-(4-chloro-7-(2-((S)-1-(2-((3bS,4aR)-5,5-difluoro-3-(trifluoromethyl)-3b,4,4a,5-tetrahydro-1H-cyclopropa[3,4]cyclopenta[1,2-c]pyrazol-1-yl)acetamido)-2-(3,5-difluorophenyl)ethyl)-6-(3-methyl-3-(methylsulfonyl)but-1-yn-1-yl)pyridin-3-yl)-1-(2,2,2-trifluoroethyl)-1H-indazol-3-yl)methylsulfonamido)methoxy)-2-oxoacetic acid] | 13 | 100 | 448 (≈ 419 µM) | 454 (≈ 424 µM)
3 | C[C@@H](N)C(=O)OCN(c1nn(CC(F)(F)F)c2c(-c3ccc(C#CC(C)(C)S(C)(=O)=O)nc3[C@H](Cc3cc(F)cc(F)c3)NC(=O)Cn3nc(C(F)(F)F)c4c3C(F)(F)[C@@H]3C[C@H]43)ccc(Cl)c12)S(C)(=O)=O [Compound 26, (N-(4-chloro-7-(2-((S)-1-(2-((3bS,4aR)-5,5-difluoro-3-(trifluoromethyl)-3b,4,4a,5-tetrahydro-1H-cyclopropa[3,4]cyclopenta[1,2-c]pyrazol-1-yl)acetamido)-2-(3,5-difluorophenyl)ethyl)-6-(3-methyl-3-(methylsulfonyl)but-1-yn-1-yl)pyridin-3-yl)-1-(2,2,2-trifluoroethyl)-1H-indazol-3-yl)methylsulfonamido)methyl D-alaninate] | 23 | 2 | 13 (≈ 12.2 µM) | 89 (≈ 83.2 µM)
4 | CC(C)(C#Cc1ccc(-c2ccc(Cl)c3c(N(COC(=O)CN)S(C)(=O)=O)nn(CC(F)(F)F)c23)c([C@H](Cc2cc(F)cc(F)c2)NC(=O)Cn2nc(C(F)(F)F)c3c2C(F)(F)[C@@H]2C[C@H]32)n1)S(C)(=O)=O [Compound 29, (N-(4-chloro-7-(2-((S)-1-(2-((3bS,4aR)-5,5-difluoro-3-(trifluoromethyl)-3b,4,4a,5-tetrahydro-1H-cyclopropa[3,4]cyclopenta[1,2-c]pyrazol-1-yl)acetamido)-2-(3,5-difluorophenyl)ethyl)-6-(3-methyl-3-(methylsulfonyl)but-1-yn-1-yl)pyridin-3-yl)-1-(2,2,2-trifluoroethyl)-1H-indazol-3-yl)methylsulfonamido)methyl glycinate] | 54 | 4 | 6 (≈ 5.69 µM) | 120 (≈ 114 µM)
5 | CN(CC(=O)O)C(=O)N(c1nn(CC(F)(F)F)c2c(-c3ccc(C#CC(C)(C)S(C)(=O)=O)nc3[C@H](Cc3cc(F)cc(F)c3)NC(=O)Cn3nc(C(F)(F)F)c4c3C(F)(F)[C@@H]3C[C@H]43)ccc(Cl)c12)S(C)(=O)=O [Compound 44, N-((4-chloro-7-(2-((S)-1-(2-((3bS,4aR)-5,5-difluoro-3-(trifluoromethyl)-3b,4,4a,5-tetrahydro-1H-cyclopropa[3,4]cyclopenta[1,2-c]pyrazol-1-yl)acetamido)-2-(3,5-difluorophenyl)ethyl)-6-(3-methyl-3-(methylsulfonyl)but-1-yn-1-yl)pyridin-3-yl)-1-(2,2,2-trifluoroethyl)-1H-indazol-3-yl)(methylsulfonyl)carbamoyl)-N-methylglycine] | 1 | 9 | 10 (≈ 9.23 µM) | 10 (≈ 9.23 µM)
6 | CN(CCC(=O)O)C(=O)N(c1nn(CC(F)(F)F)c2c(-c3ccc(C#CC(C)(C)S(C)(=O)=O)nc3[C@H](Cc3cc(F)cc(F)c3)NC(=O)Cn3nc(C(F)(F)F)c4c3C(F)(F)[C@@H]3C[C@H]43)ccc(Cl)c12)S(C)(=O)=O [Compound 45, 3-(3-(4-chloro-7-(2-((S)-1-(2-((3bS,4aR)-5,5-difluoro-3-(trifluoromethyl)-3b,4,4a,5-tetrahydro-1H-cyclopropa[3,4]cyclopenta[1,2-c]pyrazol-1-yl)acetamido)-2-(3,5-difluorophenyl)ethyl)-6-(3-methyl-3-(methylsulfonyl)but-1-yn-1-yl)pyridin-3-yl)-1-(2,2,2-trifluoroethyl)-1H-indazol-3-yl)-1-methyl-3-(methylsulfonyl)ureido)propanoic acid] | 1 | 20 | 14 (≈ 12.8 µM) | 1 (≈ 0.911 µM)
7 | CN(CCCC(=O)O)C(=O)N(c1nn(CC(F)(F)F)c2c(-c3ccc(C#CC(C)(C)S(C)(=O)=O)nc3[C@H](Cc3cc(F)cc(F)c3)NC(=O)Cn3nc(C(F)(F)F)c4c3C(F)(F)[C@@H]3C[C@H]43)ccc(Cl)c12)S(C)(=O)=O [Compound 46, 4-(3-(4-chloro-7-(2-((S)-1-(2-((3bS,4aR)-5,5-difluoro-3-(trifluoromethyl)-3b,4,4a,5-tetrahydro-1H-cyclopropa[3,4]cyclopenta[1,2-c]pyrazol-1-yl)acetamido)-2-(3,5-difluorophenyl)ethyl)-6-(3-methyl-3-(methylsulfonyl)but-1-yn-1-yl)pyridin-3-yl)-1-(2,2,2-trifluoroethyl)-1H-indazol-3-yl)-1-methyl-3-(methylsulfonyl)ureido)butanoic acid] | 1 | 10 | 9 (≈ 8.1 µM) | 3 (≈ 2.7 µM)
8 | CC(C)(C#Cc1ccc(-c2ccc(Cl)c3c(N(C(=O)NC(C(=O)O)C(=O)O)S(C)(=O)=O)nn(CC(F)(F)F)c23)c([C@H](Cc2cc(F)cc(F)c2)NC(=O)Cn2nc(C(F)(F)F)c3c2C(F)(F)[C@@H]2C[C@H]32)n1)S(C)(=O)=O [Compound 53, 2-(3-(4-chloro-7-(2-((S)-1-(2-((3bS,4aR)-5,5-difluoro-3-(trifluoromethyl)-3b,4,4a,5-tetrahydro-1H-cyclopropa[3,4]cyclopenta[1,2-c]pyrazol-1-yl)acetamido)-2-(3,5-difluorophenyl)ethyl)-6-(3-methyl-3-(methylsulfonyl)but-1-yn-1-yl)pyridin-3-yl)-1-(2,2,2-trifluoroethyl)-1H-indazol-3-yl)-3-(methylsulfonyl)ureido)malonic acid] | 1 | 62 | 758 (≈ 681 µM) | 370 (≈ 332 µM)
9 | CC(C)(C#Cc1ccc(-c2ccc(Cl)c3c(N(C(=O)NC(CP(=O)(O)O)C(=O)O)S(C)(=O)=O)nn(CC(F)(F)F)c23)c([C@H](Cc2cc(F)cc(F)c2)NC(=O)Cn2nc(C(F)(F)F)c3c2C(F)(F)[C@@H]2C[C@H]32)n1)S(C)(=O)=O (stereo partly drawn) [Compound 56, 2-(3-(4-chloro-7-(2-((S)-1-(2-((3bS,4aR)-5,5-difluoro-3-(trifluoromethyl)-3b,4,4a,5-tetrahydro-1H-cyclopropa[3,4]cyclopenta[1,2-c]pyrazol-1-yl)acetamido)-2-(3,5-difluorophenyl)ethyl)-6-(3-methyl-3-(methylsulfonyl)but-1-yn-1-yl)pyridin-3-yl)-1-(2,2,2-trifluoroethyl)-1H-indazol-3-yl)-3-(methylsulfonyl)ureido)-3-phosphonopropanoic acid] | 3 | 42 | 1080 (≈ 930 µM) | 1590 (≈ 1370 µM)
10 | CC(C)(C#Cc1ccc(-c2ccc(Cl)c3c(N(C(=O)N[C@@H](CO)C(=O)O)S(C)(=O)=O)nn(CC(F)(F)F)c23)c([C@H](Cc2cc(F)cc(F)c2)NC(=O)Cn2nc(C(F)(F)F)c3c2C(F)(F)[C@@H]2C[C@H]32)n1)S(C)(=O)=O [Compound 58, ((4-chloro-7-(2-((S)-1-(2-((3bS,4aR)-5,5-difluoro-3-(trifluoromethyl)-3b,4,4a,5-tetrahydro-1H-cyclopropa[3,4]cyclopenta[1,2-c]pyrazol-1-yl)acetamido)-2-(3,5-difluorophenyl)ethyl)-6-(3-methyl-3-(methylsulfonyl)but-1-yn-1-yl)pyridin-3-yl)-1-(2,2,2-trifluoroethyl)-1H-indazol-3-yl)(methylsulfonyl)carbamoyl)-L-serine] | 1 | 8 | 813 (≈ 740 µM) | 120 (≈ 109 µM)
11 | CC(C)(C#Cc1ccc(-c2ccc(Cl)c3c(N(C(=O)NCCNC(=N)N)S(C)(=O)=O)nn(CC(F)(F)F)c23)c([C@H](Cc2cc(F)cc(F)c2)NC(=O)Cn2nc(C(F)(F)F)c3c2C(F)(F)[C@@H]2C[C@H]32)n1)S(C)(=O)=O [Compound 76] |  |  | 7 (≈ 6.38 µM) | 68 (≈ 62 µM)
12 | CC(C)(C#Cc1ccc(-c2ccc(Cl)c3c(N(C(=O)OCCCN)S(C)(=O)=O)nn(CC(F)(F)F)c23)c([C@H](Cc2cc(F)cc(F)c2)NC(=O)Cn2nc(C(F)(F)F)c3c2C(F)(F)[C@@H]2C[C@H]32)n1)S(C)(=O)=O [Compound 129, 3-aminopropyl (4-chloro-7-(2-((S)-1-(2-((3bS,4aR)-5,5-difluoro-3-(trifluoromethyl)-3b,4,4a,5-tetrahydro-1H-cyclopropa[3,4]cyclopenta[1,2-c]pyrazol-1-yl)acetamido)-2-(3,5-difluorophenyl)ethyl)-6-(3-methyl-3-(methylsulfonyl)but-1-yn-1-yl)pyridin-3-yl)-1-(2,2,2-trifluoroethyl)-1H-indazol-3-yl)(methylsulfonyl)carbamate] | 54 | 7 |  | 
